Measurements published in patent US8563542B2 (Cyclacel Limited, priority 2007, dated 2013).
Read-outs that look alike come from different tables or passages of the source.

How the values were obtained:
[1] = target: PLK2 (Homo sapiens, UniProt Q9NYY3); experiment: PLK2 inhibition (PLK selectivity); assay type: biochemical; conditions: relative selectivity
[2] = target: PLK1 (Homo sapiens, UniProt P53350); experiment: PLK1 protein kinase assay (CDC25C phosphorylation, [γ-32P]-ATP); assay type: biochemical; conditions: read-out: PLK1 IC50
[3] = target: PLK3 (Homo sapiens, UniProt Q9H4B4); experiment: PLK3 inhibition (PLK selectivity); assay type: biochemical; conditions: relative selectivity
[4] = system: A2780 and A2780/ADR cells; experiment: Cell viability assay (Alamar Blue, 72 h), parental/MDR pair, asymmetry ratio; assay type: cell-based, human; conditions: paired parental and MDR tumour cell lines; Example 9, FIG. 3
Description: In vitro cell viability assays have been used to measure the effect of drug accumulation in paired parental and drug resistant tumour cell lines. The pairs used are the human ovarian carcinoma A2780 line with its MDR counterpart A2780/ADR and the human uterine sarcoma MES-SA line with its MDR counterpart MES-SA/Dx5 [Wesolowska O., et al. (2005) Anticancer Res., 25, 383-389].
Method: Cultivated human tumour cells of the ovarian cell line A2780 and its doxorubicin-resistant pair, A2780/ADR and the uterine cell line MES-SA and its doxorubicin-resistant pair, MES-SA/DX5 were seeded at 3000 cells per well in Nunc 96-well tissue culture plates, 100 μl per well in DMEM media containing 10% foetal calf serum and penicillin/streptomycin. […] The plates were then read at 544/595 nm.
The amount of Alamar Blue reagent reacted represents the metabolic activity of the cells. […] The values were calculated from the average of three individual measurements with blank correction (medium-only control).
The assay was performed on the Biomek FxP, automation platform from Beckman Coulter. The plates were read on the Paradigm plate reader supplied by Beckman Coulter. Asymmetry ratios were calculated as the IC50 value of the compound in the drug resistant cells divided by the IC50 value in the parental cells. […]

[5] = Pharmacokinetics in fasted conscious CD-1 mice (iv and oral); assay type: in vivo; conditions: 1 mg/kg iv, 5-10 mg/kg oral
Method: Preliminary investigations of the pharmacokinetics of selected compounds were carried out in fasted conscious CD-1 mice (25-30 g). Compounds were dosed as 1 mg/kg by intravenous administration or 5-10 mg/kg by oral route. Twenty one male mice per administration route (n=3 mice per time point) received dose solution by single bolus injection in the tail vein or by oral gavage. Blood samples were collected by cardiac puncture at 5, 15, 30, 60, 120, 240 and 360 min following iv administration and at 30, 60, 120, 240, 360, 480 and 1440 min following oral administration. Blood samples were collected into tubes containing the anti-coagulant lithium heparin, mixed and placed promptly on crushed ice. Plasma was derived from whole blood by centrifugation, frozen and stored at −80° C. prior to analysis. Plasma concentrations were determined by liquid chromatography-tandem mass spectrometry in electrospray positive mode (ESI LC/MS/MS) using calibration curves prepared in the appropriate matrix. The lower level of quantification (LLOQ) in all cases was ca. 5 ng/mL. Plasma concentration-time data was processed using the computer program WinNonLin version 5.2 from which areas under the plasma concentration-time curve (AUCall) were calculated by non-compartmental analysis using Model 201 (IV-bolus Input) or Model 200 (Extravascular Input).
FIG. 1 plots the area under the curve (AUC) for plasma concentration vs time for each compound tested. The dosing vehicle across these experiments remained constant (intravenous=citrate buffer pH 3, 1 mL/kg; oral=DMA/PEG400/10 […] Tartrate buffer, pH 4 (1:3:6), 5 ml/kg). FIG. 2 represents the same data in the form of oral bioavailability (% F) for each compound.

[6] = target: T1, AA (Homo sapiens, UniProt O14965); experiment: AA IC50 (Table 1; no method given); assay type: biochemical; conditions: Table 2, AurA IC50; class symbols; read-out: AurA IC50
T1 sequence (O14965 1-403): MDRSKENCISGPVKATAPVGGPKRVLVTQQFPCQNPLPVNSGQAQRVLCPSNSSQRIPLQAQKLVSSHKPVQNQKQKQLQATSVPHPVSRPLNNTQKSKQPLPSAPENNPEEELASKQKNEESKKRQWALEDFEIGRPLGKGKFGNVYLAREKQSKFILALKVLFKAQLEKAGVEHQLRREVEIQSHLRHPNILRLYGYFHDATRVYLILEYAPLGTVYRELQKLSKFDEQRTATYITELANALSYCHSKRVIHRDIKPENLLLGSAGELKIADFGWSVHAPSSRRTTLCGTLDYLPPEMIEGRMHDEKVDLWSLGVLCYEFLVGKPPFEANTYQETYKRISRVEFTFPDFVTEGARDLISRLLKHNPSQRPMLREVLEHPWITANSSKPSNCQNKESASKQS

[7] = Table 2, PLK1 IC50, class symbols

Chain of PLK2 (Q9NYY3 whole entry): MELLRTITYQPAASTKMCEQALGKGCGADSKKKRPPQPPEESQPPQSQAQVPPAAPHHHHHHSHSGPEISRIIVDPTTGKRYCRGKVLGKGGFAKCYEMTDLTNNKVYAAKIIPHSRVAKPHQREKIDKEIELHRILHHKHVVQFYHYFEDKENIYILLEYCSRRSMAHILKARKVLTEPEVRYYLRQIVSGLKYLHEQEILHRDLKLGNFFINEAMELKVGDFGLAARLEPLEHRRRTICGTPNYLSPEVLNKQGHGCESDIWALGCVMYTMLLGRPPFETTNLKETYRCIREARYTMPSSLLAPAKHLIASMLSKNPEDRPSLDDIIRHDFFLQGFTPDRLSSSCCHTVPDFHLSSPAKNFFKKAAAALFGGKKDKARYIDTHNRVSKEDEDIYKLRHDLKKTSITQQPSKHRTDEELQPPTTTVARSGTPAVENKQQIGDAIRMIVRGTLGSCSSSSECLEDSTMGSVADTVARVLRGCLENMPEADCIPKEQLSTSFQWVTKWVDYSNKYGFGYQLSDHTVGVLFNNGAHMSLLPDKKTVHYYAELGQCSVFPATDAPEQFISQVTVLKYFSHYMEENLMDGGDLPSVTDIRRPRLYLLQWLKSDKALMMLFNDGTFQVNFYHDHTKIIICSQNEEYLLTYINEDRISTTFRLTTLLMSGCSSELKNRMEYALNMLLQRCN
Chain of PLK3 (Q9H4B4 whole entry): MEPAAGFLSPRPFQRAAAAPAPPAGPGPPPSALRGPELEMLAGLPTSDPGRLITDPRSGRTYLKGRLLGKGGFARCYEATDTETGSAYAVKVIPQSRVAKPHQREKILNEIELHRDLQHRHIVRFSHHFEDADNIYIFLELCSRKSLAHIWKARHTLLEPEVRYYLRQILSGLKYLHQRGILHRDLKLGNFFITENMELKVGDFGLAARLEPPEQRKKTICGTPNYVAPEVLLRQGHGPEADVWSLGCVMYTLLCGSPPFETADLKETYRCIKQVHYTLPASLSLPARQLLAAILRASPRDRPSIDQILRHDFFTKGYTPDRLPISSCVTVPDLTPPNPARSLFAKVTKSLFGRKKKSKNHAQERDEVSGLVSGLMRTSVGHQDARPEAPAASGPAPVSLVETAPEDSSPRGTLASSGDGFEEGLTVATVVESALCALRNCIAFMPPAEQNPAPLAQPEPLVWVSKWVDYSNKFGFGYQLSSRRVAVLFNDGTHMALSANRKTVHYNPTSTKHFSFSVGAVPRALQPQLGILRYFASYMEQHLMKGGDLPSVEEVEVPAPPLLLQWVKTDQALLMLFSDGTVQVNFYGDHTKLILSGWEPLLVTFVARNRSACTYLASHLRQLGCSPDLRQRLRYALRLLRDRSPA
Chain of PLK1 (P53350 whole entry): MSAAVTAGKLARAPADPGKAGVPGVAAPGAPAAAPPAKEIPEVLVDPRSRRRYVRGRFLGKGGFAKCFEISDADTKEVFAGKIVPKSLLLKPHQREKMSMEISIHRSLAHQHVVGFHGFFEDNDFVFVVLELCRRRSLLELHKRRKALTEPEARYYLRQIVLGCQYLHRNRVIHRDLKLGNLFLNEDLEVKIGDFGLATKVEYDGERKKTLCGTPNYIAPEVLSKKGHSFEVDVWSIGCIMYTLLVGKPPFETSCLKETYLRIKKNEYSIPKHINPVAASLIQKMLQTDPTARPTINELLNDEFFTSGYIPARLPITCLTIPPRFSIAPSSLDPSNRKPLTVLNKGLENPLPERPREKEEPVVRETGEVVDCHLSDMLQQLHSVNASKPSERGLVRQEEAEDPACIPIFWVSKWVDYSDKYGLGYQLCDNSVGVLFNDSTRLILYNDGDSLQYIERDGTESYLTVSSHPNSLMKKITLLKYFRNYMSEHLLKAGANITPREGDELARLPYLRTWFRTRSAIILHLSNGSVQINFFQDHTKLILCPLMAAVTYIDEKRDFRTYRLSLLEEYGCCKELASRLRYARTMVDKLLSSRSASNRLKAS

Row | SMILES | IC50 [2, 7] [nM] | IC50 [6] [nM] | also measured
1 | COc1cc(C(=O)NC2CN3CCC2CC3)ccc1Nc1ncc2c(n1)N(C1CCCC1)CC1(CCC1)C(=O)N2C (racemic) [Compound 218, (±)-4-(9′-cyclopentyl-5′-methyl-6′-oxo-5′,6′,8′,9′-tetrahydrospiro[cyclobutane-1,7′-pyrimido[4,5-b][1,4]diazepine]-2′-ylamino)-3-methoxy-N-(quinuclidin-3-yl)benzamide] | < 100 |  | Selectivity for PLK1 versus PLK2 compared to compound [I-4] of WO 07/095188 [1]: 7 fold; Selectivity for PLK1 versus PLK2 compared to compound [I-64] of WO 07/095188 [1]: twice; Selectivity for PLK1 versus PLK2 compared to compound [I-76] of WO 07/095188 [1]: ~6 fold; IC50 ([2]; Table 3): < 100 nM; IC50 ([2]; Table 4): < 100 nM; Selectivity for PLK1 versus PLK3 compared to compound [I-4] of WO 07/095188 [3]: 5 fold; Selectivity for PLK1 versus PLK3 compared to compound [I-64] of WO 07/095188 [3]: 5 fold; Selectivity for PLK1 versus PLK3 compared to compound [I-76] of WO 07/095188 [3]: ~12 fold
2 | COc1cc(C(=O)N[C@H]2CC[C@H](N3CCN(CC4CC4)CC3)CC2)ccc1Nc1ncc2c(n1)N(C1CCCC1)CC(C)(C)C(=O)N2C [Compound 372, 4-(9-cyclopentyl-5,7,7-trimethyl-6-oxo-6,7,8,9-tetrahydro-5H-pyrimido[4,5-b][1,4]diazepin-2-ylamino)-N-((trans)-4-(4-(cyclopropylmethyl)piperazin-1-yl)cyclohexyl)-3-methoxybenzamide] |  |  | IC50 ([2]; Table 3): < 100 nM; Cellular efflux (MDR/parental cell asymmetry in cell viability assays) [4]: low cellular efflux
3 | COc1cc(C(=O)N[C@H]2CC[C@H](N3CCN(CC4CC4)CC3)CC2)ccc1Nc1ncc2c(n1)N(C1CCCC1)CC1(CC1)C(=O)N2C [H] |  |  | Oral bioavailability (% F) compared to compounds A-G [5]: markedly superior; Systemic exposure (plasma AUC) compared to compounds A-G [5]: markedly superior
4 | COc1cc(C(=O)N[C@H]2CC[C@H](N3CCN(CC4CC4)CC3)CC2)ccc1Nc1ncc2c(n1)N(C1CCCC1)CCC(=O)N2C [I] |  |  | Oral bioavailability (% F) compared to compounds A-G [5]: markedly superior; Systemic exposure (plasma AUC) compared to compounds A-G [5]: markedly superior
5 | Cc1ccc(N2CCC(=O)N(C)c3cnc(Nc4ccc(NC(=O)C5CC5)c(C)c4)nc32)cc1 [compound 291, Cyclopropanecarboxylic acid [2-methyl-4-(5-methyl-6-oxo-9-p-tolyl-6,7,8,9-tetrahydro-5H-pyrimido[4,5-b][1,4]diazepin-2-ylamino)-phenyl]-amide] | < 10000 | < 100 | 
6 | CN1C(=O)CCN(C2CCCC2)c2nc(Nc3ccc4sc(C(=O)O)cc4c3)ncc21 [compound 292, 5-(9-Cyclopentyl-5-methyl-6-oxo-6,7,8,9-tetrahydro-5H-pyrimido[4,5-b][1,4]diazepin-2-ylamino)-benzo[b]thiophene-2-carboxylic acid] | < 1000 | < 100 | 
7 | CN1C(=O)CCN(C2CCCC2)c2nc(Nc3ccc(C(=O)N4CCOCC4)cc3)ncc21 [compound 293, 9-Cyclopentyl-5-methyl-2-[4-(morpholine-4-carbonyl)-phenylamino]-5,7,8,9-tetrahydro-pyrimido[4,5-b][1,4]diazepin-6-one] | < 10000 | < 100 | 
8 | CN1C(=O)CCN(C2CCCC2)c2nc(Nc3ccc4c(c3)OCC(=O)N4)ncc21 [compound 294, 9-Cyclopentyl-5-methyl-2-(3-oxo-3,4-dihydro-2H-benzo[1,4]oxazin-7-ylamino)-5,7,8,9-tetrahydro-pyrimido[4,5-b][1,4]diazepin-6-one] | < 1000 | < 1000 | 
9 | CN1C(=O)CCN(C2CCCC2)c2nc(Nc3ccc4c(c3)NC(=O)CO4)ncc21 [compound 295, 9-Cyclopentyl-5-methyl-2-(3-oxo-3,4-dihydro-2H-benzo[1,4]oxazin-6-ylamino)-5,7,8,9-tetrahydro-pyrimido[4,5-13][1,4]diazepin-6-one] | < 10000 | < 100 | 
10 | CN1C(=O)CCN(C2CCCC2)c2nc(Nc3ccc4sc(C(=O)O)cc4c3)ncc21 [compound 296] | < 1000 | < 100 | 
11 | CN1C(=O)CCN(C2CCCC2)c2nc(Nc3ccc4c(c3)OCC(=O)N4)ncc21 [compound 298, 9-Cyclopentyl-5-methyl-2-(3-oxo-3,4-dihydro-2H-benzo[1,4]oxazin-7-ylamino)-5,7,8,9-tetrahydro-pyrimido[4,5-b][1,4]diazepin-6-one] | < 1000 | < 1000 | 
12 | CN1C(=O)CCN(C2CCCC2)c2nc(Nc3ccc4c(c3)NC(=O)CO4)ncc21 [compound 299, 9-Cyclopentyl-5-methyl-2-(3-oxo-3,4-dihydro-2H-benzo[1,4]oxazin-6-ylarnino)-5,7,8,9-tetrahydro-pyrimido[4,5-b][1,4]diazepin-6-one] | < 10000 | < 100 | 
13 | CN1C(=O)CCN(C2CCCC2)c2nc(Nc3ccc(S(=O)(=O)N(C)C)cc3)ncc21 [compound 300, 4-(9-Cyclopentyl-5-methyl-6-oxo-6,7,8,9-tetrahydro-5H-pyrimido[4,5-b][1,4]diazepin-2-ylamino)-N,N-dimethyl-benzenesulfonamide] | < 10000 | < 100 | 

More lines, main results first:

Row | IC50 [2, 7] [nM] | IC50 [6] [nM] | SMILES | also measured
14 | < 10000 | < 100 | CN1C(=O)CCN(C2CCCC2)c2nc(Nc3ccc(C(=O)N4CCOCC4)cc3)ncc21 [compound 297, 9-Cyclopentyl-5-methyl-2-[4-(morpholine-4-carbonyl)-phenylamino]-5,7,8,9-tetrahydro-pyrimido[4,5-b][1,4]diazepin-6-one] | 
15 | < 10000 | < 1000 | CC(=O)Nc1ccc(Nc2ncc3c(n2)N(C2CCCC2)CCC(=O)N3C)cc1Cl [compound 324, N-[2-Chloro-4-(9-cyclopentyl-5-methyl-6-oxo-6,7,8,9-tetrahydro-5H-pyrimido[4,5-b][1,4]diazepin-2-ylamino)-phenyl]-acetamide] | 
16 | < 1000 | < 10000 | CN1CCC(NC(=O)c2ccc(Nc3ncc4c(n3)N(C3CCCC3)CC3(CC3)C(=O)N4C)cc2)CC1 [compound 349, 4-(9-Cyclopentyl-5-methyl-6-oxo-6,7,8,9-tetrahydro-5H-spiro[pyrimido[4,5-b][1,4]diazepin-3,1'-cyclopropane]-2-ylamino)-N-(1-methyl-piperidin-4-yl)-benzamide] | 
